Patent publication US8252737B2, “Antimicrobial peptides and methods of use” (priority 2004, dated 2012)
Values after ≈ are worked out from the molar mass of the structure shown.

Tests used:
[1] = test system: human erythrocytes; experiment: Hemolytic activity (MHC), Protocol B, 18 hours; settings: maximal peptide concentration showing no hemolysis after 18 hours, hRBC, Table 14
Protocol: In order to evaluate the biological activities of the D-enantiomeric peptides, namely D-NAL and D-NKD, the hemolytic activity of the peptides against human erythrocytes was determined as the maximal peptide concentration that produces no hemolysis after 18 hours of incubation at 37° C.
Measurement of Hemolytic Activity—Protocol A: Peptide samples were added to 1% human erythrocytes in phosphate buffered saline (0.08M NaCl; 0.043M Na2PO4; 0.011M KH2PO4) and reactions were incubated at 37° C. for 12 hours in microtiter plates. Peptide samples were diluted 2 fold in order to determine the concentration that produced no hemolysis. […] Hemoglobin release was determined spectrophotometrically at 562 nm. The hemolytic titer was the highest 2-fold dilution of the peptide that still caused release of hemoglobin from erythrocytes. The control for no release of hemoglobin was a sample of 1% erythrocytes without any peptide added. […] Peptide samples were diluted 2 fold in order to determine the concentration that produced no hemolysis. […] Hemoglobin release was determined spectrophotometrically at 570 nm. The hemolytic titer was the highest 2-fold dilution of the peptide that still caused release of hemoglobin from erythrocytes. The control for no release of hemoglobin was a sample of 1% erythrocytes without any peptide added.

[2] = test system: Pseudomonas aeruginosa strains; settings: for MIC (μg/ml) CP 204: Pseudomonas aeruginosa clinical isolate CP 204; for MIC (μg/ml) M 2: Pseudomonas aeruginosa clinical isolate M 2; for MIC (μg/ml) PA 14: Pseudomonas aeruginosa clinical isolate PA 14; for MIC (μg/ml) PAK: Pseudomonas aeruginosa clinical isolate PAK; for MIC (μg/ml) PAO 1: Pseudomonas aeruginosa clinical isolate PAO 1; for MIC (μg/ml) WR 5: Pseudomonas aeruginosa clinical isolate WR 5; for MIC (μg/ml) GM: geometric mean of the MIC values for the 6 Pseudomonas aeruginosa clinical isolates
Protocol: Pseudomonas aeruginosa strains used in this study are a diverse group of clinical isolates from different places in the world. […] The geometric mean MIC values from six Pseudomonas aeruginosa strains were calculated to provide an overall evaluation of antimicrobial activity of these peptides against Pseudomonas aeruginosa. Fold improvement was calculated by comparing the geometric mean MIC value of each peptide to that of the parent peptide V681.
Measurement of Antimicrobial Activity—Minimal inhibitory concentrations (MICs) were determined using a standard microtiter dilution method in LB (Luria-Bertani) no-salt medium (10 g of tryptone and 5 g of yeast extract per liter). Briefly, cells were grown overnight at 37° C. in LB and diluted in the same medium. […] Plates were incubated at 37° C. for 24 hours and MICs determined as the lowest peptide concentration that inhibited growth. Alternatively, minimal inhibitory concentrations were determined using a standard microtiter dilution method in a Mueller-Hinton (MH) medium. Briefly, cells were grown overnight at 37° C. in MH broth and diluted in the same medium. […] Plates were incubated at 37° C. for 24 hours and MICs determined as the lowest peptide concentration that inhibited growth. However, for MIC determination of Pseudomonas aeruginosa clinical isolates, brain heart infusion (BH1) medium was used instead of MH broth. In addition, the bacteria were diluted to a final inoculum of 1×10^6 colony-forming units/ml.
For the Leu-substituted peptides, the hemolytic activity against human erythrocytes was determined as the maximal peptide concentration that produces no hemolysis after 18 hours of incubation at 37° C. Antimicrobial activity of the peptides was determined on a diverse group of Pseudomonas aeruginosa clinical isolates. […] The geometric mean MIC values from six Pseudomonas strains in Table 14 were calculated to provide an overall evaluation of antimicrobial activity of the peptides with different hydrophobicities.

Row | Molecule | Hemolytic activity MHC [1] | MIC (μg/ml) CP 204 [2] | MIC (μg/ml) M 2 [2] | MIC (μg/ml) PA 14 [2] | MIC (μg/ml) PAK [2] | MIC (μg/ml) PAO 1 [2] | MIC (μg/ml) WR 5 [2] | MIC (μg/ml) GM [2]
1 | CC[C@H](C)[C@H](NC(=O)[C@H](C)NC(=O)[C@H](CCCCN)NC(=O)[C@H](CC(C)C)NC(=O)[C@H](C)NC(=O)[C@@H](NC(=O)[C@H](Cc1c[nH]cn1)NC(=O)[C@H](CC(C)C)NC(=O)[C@@H](NC(=O)[C@@H](NC(=O)[C@H](CCCCN)NC(=O)[C@H](CCCCN)NC(=O)[C@H](CC(C)C)NC(=O)[C@H](CO)NC(=O)[C@H](CCCCN)NC(=O)[C@H](Cc1ccccc1)NC(=O)[C@@H](NC(=O)[C@H](CCCCN)NC(=O)[C@H](CC(C)C)NC(=O)[C@H](Cc1ccccc1)NC(=O)[C@H](CO)NC(=O)[C@H](CCCCN)NC(=O)[C@H](Cc1c[nH]c2ccccc12)NC(=O)[C@H](CCCCN)NC(C)=O)[C@@H](C)O)[C@@H](C)O)C(C)C)[C@@H](C)O)C(=O)N[C@@H](CO)C(=O)N[C@@H](CO)C(N)=O [Peptide A12L] | 31.3 µg/mL | 15.6 µg/mL (≈ 5.14 µM) | 15.6 µg/mL (≈ 5.14 µM) | 31.3 µg/mL (≈ 10.3 µM) | 31.3 µg/mL (≈ 10.3 µM) | 15.6 µg/mL (≈ 5.14 µM) | 62.5 µg/mL (≈ 20.6 µM) | 24.8 µg/mL (≈ 8.18 µM)
2 | Ac-KWKSFLKTFKSAKKTVLHTALKLISS-NH2 [Peptide A23L] | 62.5 µg/mL | 15.6 µg/mL | 31.3 µg/mL | 31.3 µg/mL | 62.5 µg/mL | 31.3 µg/mL | 62.5 µg/mL | 35.1 µg/mL
